Results: patent publication US5552156A, “Liposomal and micellular stabilization of camptothecin drugs” (Ohio State University, priority 1995, dated 1996)
Several values for one entry are separate records, joined by “and”; a condition that tells them apart may be missing. Equal entries are not always repeated.

Legend:
[1] = Overall association constant by fluorescence anisotropy titration, DMPC liposomes; assay type: physicochemical; conditions: 2 mM drug, 0.29M DMPC
[2] = Iodide quenching of camptothecin fluorescence; assay type: physicochemical
Description: Additional evidence that the fluorochrome of the camptothecin drugs penetrates into the membrane of the liposome comes from iodide quenching data. Iodide has an immeasurably small permeation of the liposome membrane and is able to discriminate between camptothecin drug molecules free in solution and those molecules located in the interior of the liposome membrane. These methods have been described in detail in Burke and Tritton, Biochemistry (1985) 24: 5972-5980; G. L. Jendrasiak, Chem. Phys. Lipids 9: 133-146 (1992); and, M. Cranney et al. Biochem. Biophys. ACTA 735, 418-425, which are incorporated herein by reference. The quenching studies were conducted using 0.5M iodide in PBS buffer.
The quenching of fluorescence of both camptothecin free in PBS and liposome membrane bound camptothecin by iodide ions was conducted at a constant halide concentration of 0.5M, in the presence of 2 mM sodium thiosulfate to prevent the oxidation of iodide. The camptothecin concentration was 1×10^-6 M and the iodide concentration was varied from 0 to 0.5M, and the chloride concentration was adjusted accordingly. The quenching experiments for the camptothecin bound to DMPC or DMPG liposome membranes were done at a lipid concentration of 100 mg/mL, so that the fraction of the bound camptothecin was more than 97%.
Fluorescence of the liposome membrane bound camptothecin is quenched to relatively lower extent, for instance, F0 /F, for camptothecin bound to DMPC liposomes is only 4.1 (see Plot C). Also, there is a clear cut upward curvature in the F0 /F vs. [I] plot (curve "A", […]) for camptothecin free in PBS whereas F0 /F vs. [I] plot for camptothecin bound with DMPC membranes is linear. Quenching of fluorescence is believed to proceed via the dynamic (or collisional) and static quenching processes. Fluorescence quenching by a quencher molecule in contact with the fluorophore at the instant of excitation is considered to be static quenching. The static and dynamic quenching processes are separated by the following modified form of the Stern-Volmer equation (Eftink & Ghiron, 1976): […]
where, V is the static quenching constant and Ksv the dynamic or collisional quenching constant. The V and Ksv values were obtained by fitting the quenching data to equation 3 with a value of V which gave the best correlation coefficient for the plot of F0 /Fe^v[Q] vs. [Q]. The upward curvature of the quenching data of free camptothecin free in PBS seen in FIG. 8 could be attributed to the static quenching process. The straight line "B", which is tangential to the F0 /F vs. [I] plot for free camptothecin in PBS, represents the dynamic part of the iodide quenching of camptothecin fluorescence, the slope of which is equal to Ksv (slope=44 3M^-1 where V=14M^-1 correlation coefficient=0.9993). The Stern-Volmer plot for the liposome bound camptothecin is linear, curve "C", FIG. 8, the slope being 6.1M^-1. […] The dashed line represents the static and dynamic quenching components camptothecin free in solution is determined by F0 /F values.

[3] = bound to DMPC liposomes, iodide

Question: For `CC[C@@]1(O)C(=O)OCc2c1cc1n(c2=O)Cc2cc3ccccc3nc2-1` [camptothecin], which “bound camptothecin level at raised drug concentration” value [1] is on record?
Answer: The value was 97%.

Question: What about the “fraction of bound camptothecin in quenching experiments” value ([2]; DMPC or DMPG, lipid 100 mg/mL) of the same compound?
Answer: The value was “more than 97%”.

Question: And the “F0/F (iodide quenching), DMPC-bound” value ([2]; bound to DMPC liposomes, 0.5M iodide)?
Answer: The value was 4.1.

Question: What about the “dynamic quenching constant Ksv (slope), DMPC-bound” value [2, 3] of the same compound?
Answer: The value was 6.1 M⁻¹ and 6.2 M⁻¹.

Question: What about the “static quenching constant V, DMPC-bound” value [2, 3] of the same compound?
Answer: The value was 0 M⁻¹.

Question: And the “F0/F (iodide quenching), free” value ([2]; free in PBS pH 7.4, 0.5M iodide)?
Answer: Its value is “about 54.3”.

Question: And the “dynamic quenching constant Ksv, free” value ([2]; free in PBS, iodide)?
Answer: Its value is 44.3 M⁻¹.
